{"source": "paper PMC11488110", "about": "(Theranostics, 2024)", "key": {"CYP1A2": {"biological_target": "T1, CYP1A2 (Homo sapiens, UniProt P05177)", "T1 construct": "performed using 0.25 mg/mL human liver microsomes; from tissue; host or cells: human liver microsomes", "T1 sequence (P05177 1-516)": "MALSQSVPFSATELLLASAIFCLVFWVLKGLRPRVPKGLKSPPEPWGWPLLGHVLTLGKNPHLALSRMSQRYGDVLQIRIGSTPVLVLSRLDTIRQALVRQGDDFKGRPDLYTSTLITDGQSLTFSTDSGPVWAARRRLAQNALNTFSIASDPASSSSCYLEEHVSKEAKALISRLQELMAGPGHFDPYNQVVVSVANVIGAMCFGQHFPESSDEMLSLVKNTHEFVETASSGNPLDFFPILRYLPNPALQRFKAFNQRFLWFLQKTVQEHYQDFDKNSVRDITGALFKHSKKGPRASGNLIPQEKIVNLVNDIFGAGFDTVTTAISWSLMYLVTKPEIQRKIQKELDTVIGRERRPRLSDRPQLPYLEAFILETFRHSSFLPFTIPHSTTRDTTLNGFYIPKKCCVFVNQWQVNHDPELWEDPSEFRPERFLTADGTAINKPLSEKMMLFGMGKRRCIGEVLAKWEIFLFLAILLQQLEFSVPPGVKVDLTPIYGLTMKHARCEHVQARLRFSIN", "experiment": "CYP inhibition assay, human liver microsomes", "assay_type": "in vitro ADME", "method": "(§1) All incubations were performed in duplicate, and the mean values were used for analysis. Cocktail incubations were carried out using […] probe substrates of CYP1A2, CYP2C9, CYP2C19, CYP2D6, and CYP3A4: phenacetin, tolbutamide, mephenytoin, dextromethorphan and midazolam respectively, followed by tandem mass spectrometry. Briefly, an incubation reaction was performed using 0.25 mg/mL human liver microsomes in a final incubation volume of 100 μL. The incubation medium contained 100 mM phosphate buffer (pH 7.4) and probe substrates. The incubation mixture containing various inhibitors (10 μM) was pre-incubated for 5 min. After pre-incubation, an NADPH-regenerating system was added. After incubation at 37 °C for 15 min, the reaction was stopped by placing the incubation tubes on ice and adding 40 μL of ice-cold acetonitrile. The incubation mixtures were centrifuged at 10,000 g and 4 °C for 5 min. Aliquots of the supernatant were injected onto an LC-MS/MS system. The CYP-mediated activities in the presence of inhibitors were expressed as a percentage of the corresponding control value.\n(§2) Ta b l e S2 . CYP inhibition, microsomal stability, and hERG in hibition of 5a .\n(§3) CYP inhibitiona Microsomal stabilityb\n(§4) ( % of c ont rol ac ti vit y) (% of remaining compound) hERG inhibitionc (IC50, μ M) […]\n(§5) aCytochrome P450 (CYP450) enzyme activity was measured by incubating CYP450 enzyme isotype-specific substrates and liver microsomes in the presence of the test compound (10 μM) for 15 min. Data are expressed as percent of CYP enzyme activity relative to that of t he v ehicle-treated control. […]\n(§6) a- cThe results of these three assays were obtained through the in vitro ADME/Tox study service of KMEDIhub, a contract research organization (CRO). The reported measurements are the mean of […]"}, "CYP2C19": {"biological_target": "T2, CYP2C19 (Homo sapiens, UniProt P33261)", "T2 construct": "performed using 0.25 mg/mL human liver microsomes; from tissue; host or cells: human liver microsomes", "T2 sequence (P33261 whole entry)": "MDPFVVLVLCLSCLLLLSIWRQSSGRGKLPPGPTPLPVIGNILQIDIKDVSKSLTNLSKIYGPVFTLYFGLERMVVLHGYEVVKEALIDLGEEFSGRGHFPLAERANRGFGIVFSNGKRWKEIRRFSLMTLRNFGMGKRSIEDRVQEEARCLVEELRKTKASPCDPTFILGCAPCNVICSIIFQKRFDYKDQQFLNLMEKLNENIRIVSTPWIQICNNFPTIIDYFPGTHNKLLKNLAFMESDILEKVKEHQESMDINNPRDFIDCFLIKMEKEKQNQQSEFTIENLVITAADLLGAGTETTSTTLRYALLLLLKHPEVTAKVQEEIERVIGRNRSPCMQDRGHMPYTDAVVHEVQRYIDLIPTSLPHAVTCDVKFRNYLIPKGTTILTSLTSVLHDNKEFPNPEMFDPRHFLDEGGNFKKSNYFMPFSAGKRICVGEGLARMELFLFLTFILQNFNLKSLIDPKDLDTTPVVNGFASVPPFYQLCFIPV", "experiment": "CYP inhibition assay, human liver microsomes", "assay_type": "in vitro ADME", "method": "as §1, §2, §3, §4, §5, §6"}, "CYP2C9": {"biological_target": "T3, CYP2C9 (Homo sapiens, UniProt P11712)", "T3 construct": "performed using 0.25 mg/mL human liver microsomes; from tissue; host or cells: human liver microsomes", "T3 sequence (P11712 whole entry)": "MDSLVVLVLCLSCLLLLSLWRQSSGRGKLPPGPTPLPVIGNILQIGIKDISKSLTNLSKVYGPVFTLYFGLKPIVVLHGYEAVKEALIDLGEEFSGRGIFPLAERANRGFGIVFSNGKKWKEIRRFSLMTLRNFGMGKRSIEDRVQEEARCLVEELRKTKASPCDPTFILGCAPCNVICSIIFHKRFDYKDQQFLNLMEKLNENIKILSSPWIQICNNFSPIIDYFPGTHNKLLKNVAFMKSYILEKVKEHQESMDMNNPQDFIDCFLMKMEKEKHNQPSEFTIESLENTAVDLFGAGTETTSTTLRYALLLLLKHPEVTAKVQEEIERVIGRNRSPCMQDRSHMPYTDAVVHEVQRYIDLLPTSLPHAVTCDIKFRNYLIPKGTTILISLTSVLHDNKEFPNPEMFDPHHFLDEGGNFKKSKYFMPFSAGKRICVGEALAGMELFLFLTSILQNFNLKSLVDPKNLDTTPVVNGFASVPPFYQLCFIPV", "experiment": "CYP inhibition assay, human liver microsomes", "assay_type": "in vitro ADME", "method": "as §1, §2, §3, §4, §5, §6"}, "CYP2D6": {"biological_target": "T4, CYP2D6 (Homo sapiens, UniProt P10635)", "T4 construct": "performed using 0.25 mg/mL human liver microsomes; from tissue; host or cells: human liver microsomes", "T4 sequence (P10635 whole entry)": "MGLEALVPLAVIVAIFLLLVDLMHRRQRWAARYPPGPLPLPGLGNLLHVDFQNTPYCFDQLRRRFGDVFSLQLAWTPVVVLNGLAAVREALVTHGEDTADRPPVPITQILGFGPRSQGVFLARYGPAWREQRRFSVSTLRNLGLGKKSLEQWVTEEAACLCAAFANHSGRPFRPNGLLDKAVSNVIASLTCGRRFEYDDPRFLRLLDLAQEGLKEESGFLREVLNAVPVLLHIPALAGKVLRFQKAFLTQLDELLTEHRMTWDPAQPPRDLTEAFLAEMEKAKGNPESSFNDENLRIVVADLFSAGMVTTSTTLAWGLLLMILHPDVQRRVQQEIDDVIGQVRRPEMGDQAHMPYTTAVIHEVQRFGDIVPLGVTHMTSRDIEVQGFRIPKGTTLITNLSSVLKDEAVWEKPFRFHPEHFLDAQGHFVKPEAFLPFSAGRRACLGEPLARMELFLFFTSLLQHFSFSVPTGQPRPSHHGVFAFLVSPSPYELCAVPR", "experiment": "CYP inhibition assay, human liver microsomes", "assay_type": "in vitro ADME", "method": "as §1, §2, §3, §4, §5, §6"}, "CYP3A4": {"biological_target": "T5, CYP3A4 (Homo sapiens, UniProt P08684)", "T5 construct": "performed using 0.25 mg/mL human liver microsomes; from tissue; host or cells: human liver microsomes", "T5 sequence (P08684 whole entry)": "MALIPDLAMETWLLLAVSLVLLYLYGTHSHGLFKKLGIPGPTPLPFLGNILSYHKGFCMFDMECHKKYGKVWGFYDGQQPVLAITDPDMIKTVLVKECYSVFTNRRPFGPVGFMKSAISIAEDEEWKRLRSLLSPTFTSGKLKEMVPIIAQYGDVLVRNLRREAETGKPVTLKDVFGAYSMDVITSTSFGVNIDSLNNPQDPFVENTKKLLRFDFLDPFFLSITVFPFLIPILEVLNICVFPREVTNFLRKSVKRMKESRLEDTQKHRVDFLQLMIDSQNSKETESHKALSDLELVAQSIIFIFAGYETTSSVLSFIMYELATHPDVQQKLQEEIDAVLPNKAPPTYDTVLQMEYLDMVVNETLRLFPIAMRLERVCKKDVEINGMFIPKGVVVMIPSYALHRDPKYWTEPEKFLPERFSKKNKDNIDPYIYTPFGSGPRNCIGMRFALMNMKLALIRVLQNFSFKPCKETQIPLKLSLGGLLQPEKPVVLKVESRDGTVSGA", "experiment": "CYP inhibition assay, human liver microsomes", "assay_type": "in vitro ADME", "method": "as §1, §2, §3, §4, §5, §6"}, "[1]": {"tested_on": "Salmonella typhimurium TA100", "experiment": "Ames MPF mutagenicity assay, TA100", "assay_type": "cell-based", "method": "An Ames microplate format (MPF) 98/100 mutagenesis assay kit (Xenometrix) was used to test mutagenic activity. The TA98 / TA100 Salmonella strain was inoculated into the bacterial culture medium and cultured overnight. The Salmonella test strain was then exposed to six concentrations of the test compound (plus positive and negative controls). Samples were prepared in 96-well plates in sterile DMSO. The cultured bacteria, test compound, and S9 mixture were incubated for 90 min at 37 °C in a shaking incubator. The mixture was then treated with an indicator medium and dispensed into 384-well plates. The plates were incubated at 37 °C for 48 h. The number of wells containing revertant colonies was counted for each dose.\nTa b l e S4 . Tw o -strain Ames mutagenic assess ment of 5a.\nStraina Activity in the absence (-) of S9b Activity in the presence (+) of S9b TA 9 8 Negative (-) Negative (-)\nTA 1 0 0 Negative (-) Negative (-) aSalmonella typhimurium strains TA98 (hi s D3052 mutation) and TA100 (hisG46 mutation) were used to detect frameshift mutations and base- pair substitution mutations, respectively. bAroclor 1254- induced rat liver S9 fraction for exogenous metabolic activation."}, "[2]": {"tested_on": "PPARδ target genes (Pdk4, Angptl4, Cd36)", "experiment": "qRT-PCR of PPARδ target genes in BV-2 microglia and mouse cortex", "assay_type": "cell-based", "settings": "in vitro (BV-2, 24 h) and in vivo (cortex)", "method": "Total RNA was isolated using TRIzol® (Invitrogen). Genomic DNA was removed and complementary DNA was synthesized from 500 ng total RNA using the iScript™ gDNA Clear cDNA Synthesis Kit (Bio-Rad). Real-time PCR was performed using the CFX Connect™ Real-Time PCR Detection System (Bio-Rad) using iQ™ SYBR® Green Supermix (Bio-Rad). The hypoxanthine phosphoribosyltransferase (Hprt) was used to normalize mRNA expression levels. Primer sequences used are described in Table S6.\nFigure S8. 5a induces transcriptional activation of PPAR δ targ et genes in vitro an d in vivo.\n(A-B) qRT-PCR anal ysi s of relative mRNA expression of Ppard and its downstream t arget genes, including Pdk4 , Angptl4, and Cd36. (A) BV-2 microglia were treated with 5a or […]\ntreated control (one -wa y ANOVA with Dunnett’s test). (B) Cortical homogenates from 10 - month- old WT and APP/PS1 mice treated with vehicle or 5a (30 m g/kg/day for 10 da ys, p.o ) were used for anal ysis (n = 3–4 mice per group). *P < 0.05 and ****P < 0.0001; n.s., not significant (one-wa y ANOVA with Tukey’s test). Hprt mRNA levels were used to normalize the expression of each gene.Data are p resented as mean ± SEM. GW: GW501516.\n(1 picture or pasted object on this page, not shown here)"}, "[3]": {"settings": "10 μM, 15 min, human liver microsomes"}, "[4]": {"settings": "stated for the five CYP subtypes, tested at 10 µM"}}, "note": "pIC50: −log10 of the molar value. Entries after “also recorded” stand apart in the source; their conditions may differ."}
{"smiles": "Cc1cc(SCc2[se]c(-c3ccc(C(F)(F)F)cc3)nc2C)ccc1OCC(=O)O", "note": "[Compound 5a, {2-Methyl-4-[4-methyl-2-(4-trifluoromethyl-phenyl)-selenazol-5-yl-methylsulfanyl]-phenoxy}-acetic acid]", "values": [{"measurement": "CYP inhibition 1A2 (% of control activity)", "setting": "CYP1A2; [3]", "result": "78.1 % of control activity"}, {"measurement": "pIC50", "setting": "CYP1A2; [4]", "result": "< 5.00"}, {"measurement": "CYP inhibition 2C19 (% of control activity)", "setting": "CYP2C19; [3]", "result": "88.6 % of control activity"}, {"measurement": "pIC50", "setting": "CYP2C19; [4]", "result": "< 5.00"}, {"measurement": "CYP inhibition 2C9 (% of control activity)", "setting": "CYP2C9; [3]", "result": "63.6 % of control activity"}, {"measurement": "pIC50", "setting": "CYP2C9; [4]", "result": "< 5.00"}, {"measurement": "CYP inhibition 2D6 (% of control activity)", "setting": "CYP2D6; [3]", "result": "92.1 % of control activity"}, {"measurement": "pIC50", "setting": "CYP2D6; [4]", "result": "< 5.00"}, {"measurement": "CYP inhibition 3A4 (% of control activity)", "setting": "CYP3A4; [3]", "result": "94.9 % of control activity"}, {"measurement": "pIC50", "setting": "CYP3A4; [4]", "result": "< 5.00"}, {"measurement": "Ames mutagenic activity in the presence (+) of S9", "setting": "[1]; TA100, with rat liver S9", "result": "Negative (-); also recorded: lacks mutagenicity"}, {"measurement": "Ames mutagenic activity in the absence (-) of S9", "setting": "[1]; TA100, without S9", "result": "Negative (-); also recorded: lacks mutagenicity"}, {"measurement": "Transcription of PPARδ target genes Pdk4, Angptl4, Cd36", "setting": "[2]", "result": "induced transcriptional activation"}]}
